In ChEMBL document CHEMBL5260810, “Inhibition of bromodomain-containing protein 9 for the prevention of epigenetically-defined drug resistance” (Bioorg Med Chem Lett, 2017):
Calls of active or inactive are those of the source. The rule behind the calls is not given here.

Key:
[1] = tested on: NCI-H23; assay: Antiproliferative activity against human NCI-H23 cells assessed as reduction in colony formation up to 20 uM supplemented with fresh medium containing compound every 3 days for 9 days by MTT staining based clonogenic assay; format: functional, cell-based; conditions: time 9.0 day
[2] = tested on: Capan-2; assay: Antiproliferative activity against human Capan-2 cells assessed as reduction in colony formation up to 20 uM supplemented with fresh medium containing compound every 3 days for 9 days by MTT staining based clonogenic assay; format: functional, cell-based; conditions: time 9.0 day
[3] = tested on: MCF7; assay: Antiproliferative activity against human MCF7 cells assessed as reduction in colony formation up to 20 uM supplemented with fresh medium containing compound every 3 days for 9 days by MTT staining based clonogenic assay; format: functional, cell-based; conditions: time 9.0 day
[4] = target: T1, Bromodomain-containing protein 9 (Homo sapiens) (UniProt Q9H8M2); assay: Inhibition of BRD9 in human PC-9 cells assessed as reduction in ALDH1A1 gene expression at 0.5 uM preincubated with erlotinib for 8 days followed by compound addition and measured after 24 hrs by RNA sequencing analysis; format: cell-based
T1 sequence (whole entry): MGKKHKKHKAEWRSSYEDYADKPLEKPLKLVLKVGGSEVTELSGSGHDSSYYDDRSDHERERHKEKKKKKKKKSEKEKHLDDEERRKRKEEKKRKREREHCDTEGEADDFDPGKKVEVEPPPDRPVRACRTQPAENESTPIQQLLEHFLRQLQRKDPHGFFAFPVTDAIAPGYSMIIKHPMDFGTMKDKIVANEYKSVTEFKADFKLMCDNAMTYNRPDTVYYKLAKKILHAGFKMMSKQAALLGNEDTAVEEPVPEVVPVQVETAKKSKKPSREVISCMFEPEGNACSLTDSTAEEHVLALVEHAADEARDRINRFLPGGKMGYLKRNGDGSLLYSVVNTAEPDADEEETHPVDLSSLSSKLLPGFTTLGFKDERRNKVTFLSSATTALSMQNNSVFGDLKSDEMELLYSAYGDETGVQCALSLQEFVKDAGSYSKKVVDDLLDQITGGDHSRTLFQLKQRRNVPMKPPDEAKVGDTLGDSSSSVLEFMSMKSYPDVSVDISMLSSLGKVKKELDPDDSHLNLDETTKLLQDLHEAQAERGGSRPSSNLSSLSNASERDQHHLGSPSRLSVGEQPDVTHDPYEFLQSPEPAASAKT

[5] = tested on: JJN-3; assay: Cytotoxicity against human JJN-3 cells measured after 3 days; format: functional, cell-based; conditions: JJN-3, 72 h
[6] = tested on: K562; assay: Cytotoxicity against human K562 cells measured after 3 days; format: functional, cell-based; conditions: K562, 72 h
[7] = Cytotoxicity against human KMS-21BM cells measured after 3 days; format: functional, cell-based; conditions: 72 h
[8] = Cytotoxicity against human KMS-27 cells measured after 3 days; format: functional, cell-based; conditions: KMS-27, 72 h
[9] = Cytotoxicity against human KMS-34 cells measured after 3 days; format: functional, cell-based; conditions: KMS-34, 72 h
[10] = tested on: AMO1; assay: Cytotoxicity against human AMO1 cells measured after 3 days; format: functional, cell-based; conditions: AMO1, 72 h
[11] = tested on: 786-0; assay: Cytotoxicity against human 786-0 cells measured after 3 days; format: functional, cell-based; conditions: 786-0, 72 h
[12] = tested on: HepG2; assay: Cytotoxicity against human HepG2 cells measured after 3 days; format: functional, cell-based; conditions: HepG2, 72 h
[13] = tested on: HuCCT-1; assay: Cytotoxicity against human HuCCT-1 cells measured after 3 days; format: functional, cell-based; conditions: HuCCT-1, 72 h
[14] = tested on: COR-L47; assay: Cytotoxicity against human COR-L47 cells measured after 3 days; format: functional, cell-based; conditions: COR-L47, 72 h
[15] = Cytotoxicity against human MOLM16 cells measured after 3 days; format: functional, cell-based, MOLM-16; conditions: MOLM16, 72 h
[16] = tested on: IMR-32; assay: Cytotoxicity against human IMR-32 cells measured after 3 days; format: functional, cell-based; conditions: IMR-32, 72 h
[17] = Cytotoxicity against human NCE-G 61 cells measured after 3 days; format: functional, cell-based; conditions: NCE-G 61, 72 h
[18] = tested on: SW1573; assay: Cytotoxicity against human SW1573 cells measured after 3 days; format: functional, cell-based; conditions: SW1573, 72 h
[19] = Cytotoxicity against human Ci-1 cells measured after 3 days; format: functional, cell-based; conditions: Ci-1, 72 h
[20] = tested on: JeKo-1; assay: Cytotoxicity against human JeKo-1 cells measured after 3 days; format: functional, cell-based; conditions: JeKo-1, 72 h
[21] = tested on: Rec1; assay: Cytotoxicity against human REC1 cells measured after 3 days; format: functional, cell-based; conditions: Rec1, 72 h
[22] = Cytotoxicity against human Ri-1 cells measured after 3 days; format: functional, cell-based; conditions: Ri-1, 72 h
[23] = tested on: RL; assay: Cytotoxicity against human RL cells measured after 3 days; format: functional, cell-based; conditions: 72 h
[24] = tested on: SU-DHL-1; assay: Cytotoxicity against human SU-DHL-1 cells measured after 3 days; format: functional, cell-based; conditions: SU-DHL-1, 72 h
[25] = tested on: SU-DHL-8; assay: Cytotoxicity against human SU-DHL-8 cells measured after 3 days; format: functional, cell-based; conditions: SU-DHL-8, 72 h
[26] = tested on: PEO1; assay: Cytotoxicity against human PEO1 cells measured after 3 days; format: functional, cell-based; conditions: PEO1, 72 h
[27] = tested on: EFO-27; assay: Cytotoxicity against human EFO-27 cells measured after 3 days; format: functional, cell-based; conditions: EFO-27, 72 h
[28] = tested on: EFM-19; assay: Cytotoxicity against human EFM-19 cells measured after 3 days; format: functional, cell-based; conditions: EFM-19, 72 h
[29] = tested on: MFM-223; assay: Cytotoxicity against human MFM-223 cells measured after 3 days; format: functional, cell-based; conditions: MFM-223, 72 h
[30] = tested on: HCC1419; assay: Cytotoxicity against human HCC1419 cells measured after 3 days; format: functional, cell-based; conditions: HCC1419, 72 h
[31] = Cytotoxicity against human SW527 cells measured after 3 days; format: functional, cell-based; conditions: SW527, 72 h
[32] = tested on: T47D; assay: Cytotoxicity against human T47D cells measured after 3 days; format: functional, cell-based; conditions: 72 h
[33] = tested on: SK-BR-3; assay: Cytotoxicity against human SK-BR-3 cells measured after 3 days; format: functional, cell-based; conditions: SK-BR-3, 72 h
[34] = tested on: HBL-100; assay: Cytotoxicity against human HBL-100 cells measured after 3 days; format: functional, cell-based; conditions: HBL-100, 72 h
[35] = Cytotoxicity against human CoCM-1 cells measured after 3 days; format: functional, cell-based; conditions: CoCM-1, 72 h
[36] = tested on: TOV21G; assay: Cytotoxicity against human TOV-21G cells measured after 3 days; format: functional, cell-based; conditions: 72 h
[37] = Cytotoxicity against human COV362 cells measured after 3 days; format: functional, cell-based; conditions: COV362, 72 h
[38] = tested on: OV-90; assay: Cytotoxicity against human OV-90 cells measured after 3 days; format: functional, cell-based; conditions: OV-90, 72 h
[39] = Cytotoxicity against human TYK-nu.CP-r cells measured after 3 days; format: functional, cell-based; conditions: 72 h
[40] = Cytotoxicity against human RKOE6 cells measured after 3 days; format: functional, cell-based; conditions: RKOE6, 72 h
[41] = Cytotoxicity against human HCC1623 cells measured after 3 days; format: functional, cell-based; conditions: HCC1623, 72 h
[42] = tested on: MEL-HO; assay: Cytotoxicity against human MEL-HO cells measured after 3 days; format: functional, cell-based; conditions: 72 h
[43] = tested on: HBL-100; assay: Cytotoxicity against human HBL-100 cells measured after 8 days; format: functional, cell-based; conditions: HBL-100, 192 h
[44] = tested on: NCI-H2030; assay: Cytotoxicity against human NCI-H2030 cells measured after 8 days; format: functional, cell-based; conditions: NCI-H2030, 192 h
[45] = tested on: TERT-RPE1; assay: Cytotoxicity against hTERT-RPE1 cells measured after 8 days; format: functional, cell-based; conditions: Homo sapiens, RPE-1, 192 h
[46] = tested on: Calu-6; assay: Cytotoxicity against human Calu-6 cells after 8 days; format: functional, cell-based; conditions: Calu-6, 192 h

In the case of `C/C=C/Cn1cc(-c2ccc(C(C)(C)O)cc2OC)c2cc[nH]c2c1=O`, the Activity [1] is reported as “inactive”, the Activity [2] is reported as “inactive” and the Activity [3] is reported as “inactive”.

In the case of `C/C=C/Cn1cc(-c2cc(OC)c(C(=O)N3CCOCC3)cc2OC)c2cc(C)[nH]c2c1=O`, the inhibition [4] is reported as “Active”, the IC50 [5] is reported as 5 µM and the IC50 [6] is reported as 5 µM. The IC50 [7] was 5 µM, the IC50 [8] was 5 µM and the IC50 [9] was 5 µM. For the same compound, the IC50 [10] was 5 µM, the IC50 [11] was 5 µM and the IC50 [12] was 5 µM. It also gave an IC50 [13] of 5 µM, an IC50 [14] of 5 µM and an IC50 [15] of 5 µM. For the same compound, the IC50 [16] was 5 µM, the IC50 [17] was 5 µM and the IC50 [18] was 5 µM. For the same compound, the IC50 [19] was 5 µM, the IC50 [20] was 5 µM and the IC50 [21] was 5 µM. For the same compound, the IC50 [22] was 5 µM, the IC50 [23] was 5 µM and the IC50 [24] was 5 µM. For the same compound, the IC50 [25] was 5 µM, the IC50 [26] was 5 µM and the IC50 [27] was 5 µM. The IC50 [28] was 5 µM, the IC50 [29] was 5 µM and the IC50 [30] was 5 µM. For the same compound, the IC50 [31] was 5 µM, the IC50 [32] was 5 µM and the IC50 [33] was 5 µM. The IC50 [34] was 5 µM, the IC50 [35] was 5 µM and the IC50 [36] was 5 µM. The IC50 [37] was 5 µM, the IC50 [38] was 5 µM and the IC50 [39] was 5 µM. It also gave an IC50 [40] of 5 µM, an IC50 [41] of 5 µM and an IC50 [42] of 5 µM. The IC50 [43] was 2 µM, the IC50 [44] was 2 µM and the IC50 [45] was 2 µM. It also gave an IC50 [46] of 2 µM.
